Test systems include SNB-75 CNS; SK-OV-3 ovarian; CAKI-1 renal; HT29 colon; HS 578T breast; PC-3 prostate; HOP-62 NSCLC; A549 NSCLC; MOLT-4 leukemia; OVCAR-4 ovarian.
Holding throughout (assay): NCI tumour cell line growth inhibition, 48 h

Molecules are shown by their SMILES. Several values for one entry are separate records, joined by “and”; a condition that tells them apart may be missing. Equal values may be shown once.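 Following 48 hours of exposure in 96-well plates, responses at five concentrations were used to interpolate endpoints linearly. GI50 = concentration required for 50% inhibition of growth. The concentration for full growth arrest is given as TGI.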 *1 amine or outer side, *2 acyl side, *3 side chain or, on linkers, in order; H or OH if unused. Where a SMILES comes first, the peptide text is derived from it. Bridges are numbered along the chain shown (N, C = ends). [ ]: non-standard residue; d: D form. The star is where a group is joined. Phe(3-Me) = Cc1cccc(C[C@H](N)C(=O)O)c1; NH(4-Cl-2-F-phenyl) = Fc1cc(Cl)ccc1N*; Pro(4R-Me) = C[C@H]1CN[C@H](C(=O)O)C1; Propanoyl(3-NMe2) = CN(C)CCC(=O)*; Hyp = O=C(O)[C@@H]1C[C@@H](O)CN1; aThr = C[C@H](O)[C@H](N)C(=O)O; Pip = O=C(O)[C@@H]1CCCCN1; CO = O=C([*:1])[*:2] Bounds are passed on as bounds.

Turning to `C=C(CN1CCN(c2cccc(F)c2)CC1)c1ccc(C(=O)Nc2ccccc2N)cc1`, the GI50 in the assay with SNB-75 CNS is 0.492 µM; with SK-OV-3 ovarian it was 5.31 µM; in the assay with CAKI-1 renal it was 0.629 µM; in the assay with HT29 colon, 1.09 µM; in the assay with HS 578T breast, 2.61 µM; in the assay on PC-3 prostate, 0.689 µM. Also, the GI50 with HOP-62 NSCLC is 0.83 µM; in the assay on A549 NSCLC it was 3.24 µM; in the assay with MOLT-4 leukemia it was 0.315 µM; in the assay on OVCAR-4 ovarian it was 3.35 µM. The TGI in the assay with SNB-75 CNS was 6.24 µM; in the assay with SK-OV-3 ovarian it was over 100 µM; with CAKI-1 renal, 7.74 µM; in the assay on HT29 colon, 4.06 µM; with HS 578T breast it was over 100 µM; with PC-3 prostate, 4.03 µM. The TGI was 17.5 µM in the assay on HOP-62 NSCLC, 16.3 µM in the assay with A549 NSCLC, 2.76 µM with MOLT-4 leukemia and 33.9 µM in the assay on OVCAR-4 ovarian.
Consider `O=C1c2ccccc2C(=O)c2c1ccc1c2OCO1`, for which the TGI with SNB-75 CNS, in the assay on SK-OV-3 ovarian, in the assay with CAKI-1 renal, with HT29 colon, in the assay on HS 578T breast and with PC-3 prostate was over 100 µM each time. The TGI in the assay on HOP-62 NSCLC, in the assay with A549 NSCLC, in the assay with MOLT-4 leukemia and in the assay with OVCAR-4 ovarian was over 100 µM each time.
Take `Cc1cccc(C[C@H](NC(=O)Nc2ccc(Cl)cc2F)C(=O)N[C@@H]2C(=O)N3C[C@H](OC(=O)CCN(C)C)C[C@H]3C(=O)N3CCCC[C@H]3C(=O)N[C@@H](C)C(=O)N3C[C@H](C)C[C@H]3C(=O)O[C@H]2C)c1` ({NH(4-Cl-2-F-phenyl)-CO}-[Phe(3-Me)][aThr][Hyp](Propanoyl(3-NMe2))[Pip]A[Pro(4R-Me)]; ester 2-C): the GI50 with SNB-75 CNS is 1.26 µM; in the assay on SK-OV-3 ovarian, 0.487 µM; in the assay with CAKI-1 renal it was 0.978 µM; in the assay on HT29 colon it was 0.526 µM; in the assay with HS 578T breast, 0.474 µM; in the assay on PC-3 prostate, 0.368 µM. Moreover, the GI50 in the assay with HOP-62 NSCLC was 0.536 µM; with A549 NSCLC it was 0.526 µM; in the assay on MOLT-4 leukemia, 0.811 µM; in the assay with OVCAR-4 ovarian it was 0.334 µM. In addition, the TGI with SNB-75 CNS came to 9.44 µM; in the assay on SK-OV-3 ovarian, 5.74 µM; in the assay on CAKI-1 renal, 3.59 µM; with HT29 colon, 2.82 µM; with HS 578T breast, 3.82 µM; in the assay on PC-3 prostate, 1.76 µM. Moreover, the TGI in the assay with HOP-62 NSCLC amounted to 7.24 µM; in the assay on A549 NSCLC, 11.2 µM; in the assay on MOLT-4 leukemia, 4.65 µM; in the assay with OVCAR-4 ovarian, 2.06 µM.
For `COc1ccc(/C=C/C(=O)c2ccc(Nc3ccnc4cc(Cl)ccc34)cc2)cc1`, the GI50 in the assay on SNB-75 CNS was over 100 µM; in the assay on SK-OV-3 ovarian, over 100 µM; in the assay with CAKI-1 renal, over 100 µM; in the assay on HT29 colon it was 4.2 µM; with HS 578T breast it was over 100 µM; in the assay with PC-3 prostate, over 100 µM. The GI50 is over 100 µM in the assay with HOP-62 NSCLC, over 100 µM with A549 NSCLC, 4.35 µM in the assay with MOLT-4 leukemia and over 100 µM in the assay with OVCAR-4 ovarian. Further, the TGI with SNB-75 CNS, in the assay on SK-OV-3 ovarian, in the assay on CAKI-1 renal, with HT29 colon, in the assay with HS 578T breast and in the assay on PC-3 prostate was over 100 µM throughout. Besides, the TGI in the assay with HOP-62 NSCLC is over 100 µM; in the assay with A549 NSCLC it was over 100 µM; in the assay with MOLT-4 leukemia it was over 48.4 µM; in the assay on OVCAR-4 ovarian it was over 100 µM.
For `COc1ccc(CC2C3=C(CCCC3)CCN2C)cc1` (stereo not drawn), the TGI with SNB-75 CNS, in the assay with SK-OV-3 ovarian, in the assay with CAKI-1 renal, in the assay with HT29 colon, in the assay with HS 578T breast and in the assay on PC-3 prostate was over 100 µM each time. The TGI with HOP-62 NSCLC, with A549 NSCLC, in the assay with MOLT-4 leukemia and in the assay with OVCAR-4 ovarian was over 100 µM each time.
Regarding `Nc1nc2c(c3cnccc13)C(c1cccc(Cl)c1)Cc1cnccc1-2` (stereo not drawn), the GI50 in the assay on SNB-75 CNS is 0.38 µM; in the assay on SK-OV-3 ovarian, 0.51 µM; in the assay with CAKI-1 renal, 0.434 µM; with HT29 colon, 0.336 µM; in the assay on HS 578T breast it was 0.466 µM; in the assay on PC-3 prostate, 0.439 µM. In addition, the GI50 in the assay on HOP-62 NSCLC is 0.441 µM; in the assay with A549 NSCLC, 0.552 µM; in the assay with MOLT-4 leukemia, 0.494 µM; with OVCAR-4 ovarian, 2.23 µM. For the same compound, the TGI with SNB-75 CNS amounted to 17.8 µM; with SK-OV-3 ovarian, 15 µM; in the assay with CAKI-1 renal, 15.5 µM; with HT29 colon, 2.56 µM; in the assay with HS 578T breast, 32.9 µM; in the assay on PC-3 prostate, 1.66 µM. The TGI in the assay on HOP-62 NSCLC was 16.3 µM; with A549 NSCLC, 10.6 µM; in the assay on MOLT-4 leukemia, 17.3 µM; with OVCAR-4 ovarian, 41 µM.
Turning to `CC(=O)c1ccc(NCN2C(=O)c3ccccc3C2=O)cc1`, the TGI in the assay with SNB-75 CNS, with SK-OV-3 ovarian, in the assay on CAKI-1 renal, in the assay with HT29 colon, in the assay on HS 578T breast and in the assay with PC-3 prostate was over 100 µM throughout. Further, the TGI in the assay with HOP-62 NSCLC, in the assay with A549 NSCLC, in the assay with MOLT-4 leukemia and with OVCAR-4 ovarian was over 100 µM throughout.
Consider `Cn1c(=S)sc2nc3ccccc3n2c1=S`, for which the TGI was 48.8 µM in the assay on SNB-75 CNS; 36.5 µM with SK-OV-3 ovarian; 39.2 µM in the assay on CAKI-1 renal; 25.8 µM in the assay on HT29 colon; 95.9 µM with HS 578T breast; 92.3 µM in the assay with PC-3 prostate. The TGI with HOP-62 NSCLC stood at 35.2 µM; in the assay on A549 NSCLC it was 97.5 µM; in the assay on MOLT-4 leukemia it was 38.7 µM; with OVCAR-4 ovarian, 42.3 µM.
In the case of `NC[C@@](O)(c1ccc(Cl)cc1)c1ccc(-c2cn[nH]c2)cc1`, the GI50 in the assay with SNB-75 CNS is 0.11 µM and 0.245 µM; with SK-OV-3 ovarian, 2.23 µM; with CAKI-1 renal it was 0.73 µM and 1.27 µM; with HT29 colon, 1.98 µM; with HS 578T breast, 0.471 µM and 0.173 µM; with PC-3 prostate, 3.89 µM and 2.19 µM. Further, the GI50 is 2.04 µM and 0.89 µM with HOP-62 NSCLC; 1.5 µM and 1.41 µM with A549 NSCLC; 2.14 µM and 1.98 µM in the assay with MOLT-4 leukemia; 1.4 µM in the assay on OVCAR-4 ovarian. For the same compound, the TGI in the assay with SNB-75 CNS was 2.41 µM and 3.6 µM; in the assay on SK-OV-3 ovarian, over 10 µM; in the assay on HT29 colon it was 7.26 µM; with PC-3 prostate it was over 100 µM; in the assay on HOP-62 NSCLC it was over 100 µM; in the assay on A549 NSCLC, 4.08 µM and 3.21 µM. Moreover, the TGI in the assay with MOLT-4 leukemia was over 100 µM; in the assay on OVCAR-4 ovarian, 2.86 µM.
Regarding `COc1cc(OC)cc(-c2cncn2-c2ccc(-c3nc4cc(OC)c(OC)c(OC)c4s3)cc2)c1`, the GI50 in the assay with SNB-75 CNS is 15 µM; with SK-OV-3 ovarian, 49.9 µM; in the assay on CAKI-1 renal it was 3.79 µM; with HT29 colon it was 8.33 µM; with HS 578T breast, 20.9 µM; with PC-3 prostate it was 3.17 µM. Besides, the GI50 in the assay with HOP-62 NSCLC was 26.4 µM; with A549 NSCLC, 5.59 µM; in the assay on MOLT-4 leukemia, 4.1 µM; in the assay on OVCAR-4 ovarian, 6.67 µM. Moreover, the TGI in the assay on SNB-75 CNS was 42.7 µM; in the assay on SK-OV-3 ovarian, over 100 µM; with CAKI-1 renal, over 100 µM; in the assay on HT29 colon, over 100 µM; with HS 578T breast it was over 100 µM; in the assay with PC-3 prostate it was over 100 µM. For the same compound, the TGI in the assay with HOP-62 NSCLC, in the assay with A549 NSCLC, in the assay on MOLT-4 leukemia and with OVCAR-4 ovarian was over 100 µM throughout.
Take `CCCN1CCN(c2ccc3nc(-c4ccc5nc(-c6ccc(OCC)c(OCC)c6)[nH]c5c4)[nH]c3c2)CC1`: the GI50 in the assay on SNB-75 CNS is 0.425 µM; with SK-OV-3 ovarian, 1.6 µM; with CAKI-1 renal, 1.02 µM; with HT29 colon, 0.294 µM; in the assay on HS 578T breast, 1.11 µM; with PC-3 prostate it was 0.381 µM. In addition, the GI50 in the assay on HOP-62 NSCLC was 0.956 µM; in the assay on A549 NSCLC, 0.808 µM; in the assay with MOLT-4 leukemia, 0.471 µM; with OVCAR-4 ovarian it was 0.449 µM. The TGI came to 1.9 µM in the assay on SNB-75 CNS; 7.54 µM with SK-OV-3 ovarian; 3.28 µM in the assay on CAKI-1 renal; 1.66 µM in the assay on HT29 colon; 3.56 µM in the assay with HS 578T breast; 1.92 µM in the assay on PC-3 prostate. Further, the TGI in the assay on HOP-62 NSCLC stood at 3.2 µM; in the assay on A549 NSCLC, 2.35 µM; with MOLT-4 leukemia it was 3.34 µM; in the assay on OVCAR-4 ovarian, 1.84 µM.
Turning to `C[n+]1ccc(-c2c3nc(c(-c4ccc5c(ccc[n+]5C)c4)c4ccc([nH]4)c(-c4cc[n+](C)cc4)c4nc(c(-c5ccc6c(ccc[n+]6C)c5)c5ccc2[nH]5)C=C4)C=C3)cc1`, the GI50 with SNB-75 CNS is 5.09 µM; with SK-OV-3 ovarian it was over 50 µM; in the assay with CAKI-1 renal, over 50 µM; in the assay with HT29 colon it was over 50 µM; with HS 578T breast, 42.4 µM; in the assay with PC-3 prostate it was 49.5 µM. The GI50 is 13.3 µM with HOP-62 NSCLC, 38.1 µM in the assay on A549 NSCLC, over 50 µM with MOLT-4 leukemia and 27.5 µM with OVCAR-4 ovarian. Besides, the TGI with SNB-75 CNS is 26.1 µM; in the assay on SK-OV-3 ovarian it was over 50 µM; in the assay on CAKI-1 renal, over 50 µM; in the assay on HT29 colon it was over 50 µM; with HS 578T breast it was over 50 µM; in the assay on PC-3 prostate, over 50 µM. Further, the TGI with HOP-62 NSCLC, in the assay on A549 NSCLC, in the assay with MOLT-4 leukemia and in the assay on OVCAR-4 ovarian was over 50 µM in each case.
